Measurements: patent US11512042B2, “Enamine compounds for absorbance of electromagnetic energy” (Commonwealth Scientific and Industrial Research Organisation, priority 2015, dated 2022)
Values joined by “and” are separate entries in the source; they are usually repeats but may differ in a detail not shown here. Equal values may be shown once. “Also recorded” adds a separate entry of the source. Marks after values point to notes of the source that are not given here.

Columns and labels:
Format in all cases: physicochemical
[1] = UV absorbance spectrum in solution (λmax, λcrit, extinction coefficients); settings: for λcrit: critical wavelength; for E (1%, 1 cm): mass extinction coefficient
Outline: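 Spectra taken on 0.001% solutions in methanol, 10 mm path. Breakthrough is the wavelength where transmittance rises above 1%; steepness is the nm span over which transmittance goes from 1 to 80%.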

[2] = Photostability protocol: thin film irradiated with xenon arc lamp; settings: 1 hour xenon arc lamp; for Photostability: ratio of absorbance at λmax irradiated vs unirradiated, ^a = average of multiple measurements
Outline: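 A 3% solution in EtOH/triglyceride/alkyl benzoate is dried on glass slides into a liquid film of 1.5 mg compound. Films are irradiated 1 h with a Pyrex-filtered 150 W xenon arc lamp (about 100 MED, below 30° C). Washings are read by UV; stability is absorbance at λmax relative to unirradiated film.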

[3] = PMMA film in QUV Weatherometer; settings: type A bulbs, 70° C. 8 hours then dark humid 50° C. 4 h
Method: In order to gauge longer term photostability, the PMMA film samples were evaluated in a QUV Weatherometer using type A bulbs with solar irradiance at 70° C. for 8 hours followed by heating in the dark under a humid atmosphere at 50° C. for 4 h. The film was then sandwiched between 2 glass slides to prevent deformation and irradiated. The samples were evaluated by a visual comparison and measurement of transmittance spectra. […] This clearly indicates the suitability of compounds of the first aspect to incorporation into polymeric matrices and films. The relevant transmission spectra are shown in FIG. 11 (142), FIG. 12 (143), FIG. 13 (164), FIG. 14 (213) and FIG. 15 (215) wherein in all of these figures the lower plateau line represents the result following radiation and the upper line prior to irradiation.

[4] = % transmission spectrum of 0.1% solution (breakthrough, steepness); settings: for Steepness: distance in nm over which transmittance increases from 1 to 80%; for Breakthrough (1% T at 0.1%): value in nm where transmittance increases beyond 1%, 0.1% solution
Outline: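 Transmission was recorded for 0.1% methanol solutions in a 2 mm cuvette. Breakthrough is the wavelength (nm) at which transmittance exceeds 1%; steepness is the nm span over which transmittance rises from 1 to 80%. Some values are averages of multiple measurements.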

[5] = Lens casting in CR-39 lens formulation; settings: benzoyl peroxide initiator, cured 70° C. 18 hours, 0.1 wt %
Method: (§1) Two lens formulations were used. The first (CR-39) was composed of Di(ethylene glycol) bis(allylcarbonate) with 3% wt benzoyl peroxide as initiator. The second lens formulation (NK) was made up of 4 parts NK Ester BPE 100N (Ethoxylated Bisphenol A dimethacrylate) to 1 part NK Ester 9G (PEG 400 dimethacrylate) with 0.4 wt % AIBN as initiator.
(§2) Once the glue had dried the lens matrix (3 g of the lens matrix was treated with 3 mg of absorber, 0.1 wt % and stirred until dissolution complete. 3 g of the matrix was sufficient to prepare 3-4 lenses) was added via pipette to the interior until a convex meniscus was formed at the top of the O-ring. The mixture was then left to settle for 15 minutes during which time any bubbles formed were dispersed. A second microscope slide was then slowly rolled on top of the first to form a seal and expel any air. Taking care to maintain pressure the lens mould was then clamped at the sides with two “Bulldog” clips and cured in an oven at 70° C. for 18 hours. Once the curing process was complete the two microscope slides were separated and the lens removed from the O-ring before washing with acetone and drying/polishing with a soft tissue. The lenses thus formed were approximately 2 mm thick and 15 mm in diameter.
Of particular interest are compounds 163 and 164 which show an increase in λmax on constraining only the nitrogen substituent in a ring i.e. not the double bond. […] Additionally the dimethyl analogue 213 (structure in table 14) was also evaluated.

[6] = Solubility in the photostability test solution; settings: printed in the photostability (or steepness) column
Description: The properties of these compounds are shown in table 9 with comparator compounds. […] In both cases low solubility meant that photostability could not be measured. This would not preclude use of the compounds in many applications where solubility is not at issue.
In one embodiment, the compounds may provide for improved solubility or stability in standard compositions, including sunscreen compositions. Such solubility may be measured by generating, for example, a 3% solution of the relevant compound in 2:1:1 EtOH:capric/caprylic triglyceride:C12-C15 alkyl benzoate.
1 mL of a 3% solution of the test compound (30 mg of test compound in 1 mL solvent) was prepared in a solvent mix made up of 50% EtOH and 25% capric/caprylic triglyceride and 25% C12-C15 alkyl benzoate. 50 μL of this solution (containing 1.5 mg of test compound) was added carefully to the centre of a glass microscope slide and the volatile components left to evaporate in the dark for at least 3 hours to give a liquid film. The prepared films were then exposed for 1 hour to an Eimac 150 W xenon arc lamp filtered through Pyrex (15 Amp supply current, samples 19 cm from the lamp) previously allowed to warm up for 15 minutes prior to sample exposure. […] One hour's exposure represented a calculated radiation dose (using meter) of approximately 100 MED.

[7] = Lens casting in NK ester lens formulation; settings: AIBN initiator, cured 70° C. 18 hours, 0.1 wt %
Method: as §1, §2

[8] = Stability to epoxy resin curing; settings: 2 part epoxy resin, transmittance vs solution
Method: In order to test the stability of a number of compounds to a typical epoxy resin curing system, epoxy adhesive packs were obtained (Parfix 5 minute everyday epoxy adhesive, 24 ml). This is a standard 2 part epoxy resin with the first part composed of a viscous Bisphenol-A/epichlorohydrin polymeric reaction product. The second part is a viscous 30% solution of an aminophenol hardener, T (shown below). Epoxy resins cured by 1° and 2° amines are also available.
To test the stability of the compounds to the curing conditions, a 0.1% wt (1 mg absorber per gram of resin) was prepared and added to a mould comprising a 2 mm thick viton o-ring super glued to a microscope slide. […] Due to difficulties in solubilising the compounds in the mixed resin/hardener in the limited working time as the resin cured; the two barrels of the application syringe were separated with a scalpel allowing the separate application of both parts of the resin system.
This was then mixed thoroughly and immediately added to the moulds as described above. […]

[9] = Irradiation in polyurethane varnish coating; settings: 1% in polyurethane varnish, xenon arc lamp two hours
Method: As a model for the use of the compounds of the first aspect in coatings, a 1% solution by mass (10 mg in 1 g) of the compounds in British Paints oil based polyurethane varnish was applied to the surface of a microscope slide and left to dry overnight in the dark. The transmittance of the slide was then measured before irradiating the sample with a xenon arc lamp (as for the solution phase thin film samples) for two hours and the transmittance re-measured. Slight variations in the thickness of the films obtained would be sufficient to result in variations in transmittance so it was judged to be of equal importance to observe the slope of the samples before and after irradiation as any change here was likely an indicator of decomposition. The varnish itself blocks the transmission of light up to approximately 350-370 nm.

[10] = Irradiation of PMMA thin film (xenon lamp, sunlight); settings: irradiated 1 h, 2 h and 3 weeks direct sunlight
Method: In order to determine the stability of the compounds in a polymer matrix, thin films were cast in Poly(methylmethacrylate) (PMMA). This was achieved by adding the compound in question to a solution of PMMA (Mw 240,000) in DCM and spreading the resulting solution onto a glass slide before evaporation over night to give the desired film. The film was then sandwiched between 2 glass slides to prevent deformation and irradiated. […] In this way films of compound 164 were prepared. The films were irradiated for 1 h, 2 h and also left outside exposed to direct sunlight and atmospheric conditions for 3 weeks (Melbourne summer time).

[11] = molar extinction coefficient, in M-1 cm-1 (unit assumed)

| SMILES | λmax [1] | λcrit [1] | E (1%, 1 cm) [1] | ε [1, 11] | Photostability (% remains) [2] | Longer term photostability in PMMA film [3] | Steepness [4] | Breakthrough (1% T at 0.1%) [4] | Stability to lens casting conditions [5] | ε ([1]; UV, at λmax) | Solubility for photostability measurement [6] | Stability to lens casting conditions [7] | Stability to epoxy resin curing [8] | Photostability [2] | Stability to irradiation in varnish [9] | Stability in PMMA thin film [10] |
| --- | --- | --- | --- | --- | --- | --- | --- | --- | --- | --- | --- | --- | --- | --- | --- | --- |
| CCCCC(CC)COC(=O)c1ccc2c(c1)CCN2/C=C(\C(=O)C(F)(F)F)c1ccccc1 (centres unmarked) [Compound 215] | 374 nm | 391 nm | 1067 | 50515 | 85% | little sign of decomposition after irradiation |  |  |  |  |  |  |  |  |  |  |
| CC1(C)CN(/C=C(\C(=O)C(F)(F)F)c2ccccc2)c2ccccc21 [Compound 213] | 366 nm | 389 nm | 860 | 29690 |  | little sign of decomposition after irradiation | 22 nm | 413 nm | stable enough for such incorporation; also recorded: good stability to the lens curing conditions |  |  |  |  |  |  |  |
| O=C(/C(=C\N(c1ccccc1)c1ccccc1)c1ccccc1)C(F)(F)F [Compound 143, 4-(diphenylamino)-1,1,1-trifluoro-3-phenylbut-3-en-2-one] | 351 nm | 381 nm | 760 | 27893 |  | little sign of decomposition after irradiation | 32 nm | 402 nm | stable enough for such incorporation; also recorded: very little if any decomposition | 27893 M⁻¹ cm⁻¹ | Not soluble | very little if any decomposition | little or no decomposition occurred |  |  |  |
| O=C(/C(=C\N1CCc2ccccc21)c1ccccc1)C(F)(F)F [Compound 164] | 367 nm | 389 nm | 1127 | 35741 | 99% | little sign of decomposition after irradiation | 20 nm | 418 nm | stable enough for such incorporation; also recorded: good stability to the lens curing conditions |  |  |  | remain intact after curing | 99% | largely unscathed by the irradiation | without compound deterioration |
| CCN(/C=C(\C(=O)C(F)(F)F)c1ccccc1)c1ccccc1 [Compound 142, 4-(ethyl(phenyl)amino)-1,1,1-trifluoro-3-phenylbut-3-en-2-one] |  |  |  |  | 91% and 99% | little sign of decomposition after irradiation |  |  | stable enough for such incorporation; also recorded: very little if any decomposition |  |  | very little if any decomposition |  | 99% |  |  |
| N#CCC(=O)/C(=C\N1CCc2ccccc21)c1ccccc1 [Compound 249] | 361 nm | 361 nm | 1089 | 31385 |  |  |  | 405 nm |  |  | Not soluble |  |  |  |  |  |
| COC(=O)c1ccc2c(c1)CCN2/C=C(/C(=O)c1ccc(C(C)(C)C)cc1)c1ccccc1 [Compound 287] | 373 nm | 389 nm | 1007 | 44238 |  |  | 35 nm | 425 nm |  |  |  |  |  | 76% |  |  |
| COC(=O)c1ccc2c(c1)CCN2/C=C(/C(=O)C(=O)OC(C)(C)C)c1ccccc1 [Compound 269] | 374 nm | 391 nm | 1033 | 42074 |  |  | 26 nm | 419 nm |  |  |  |  |  | 94% and 94^a % and 98% and 91% |  |  |
| CCN(/C=C(/C(=O)c1c(C)cc(C)cc1C)c1ccccc1)c1ccccc1 [Compound 255] | 323 nm | 351 nm | 798 | 29450 |  |  | 34 nm | 364 nm |  |  |  |  |  | 83^a % |  |  |
